{"source": "BindingDB's records for doi:10.1016/s0960-894x(00)00026-3", "about": "(Universit&#224, 2000)"}
{"experiment": "Inhibition of Clostridium histolyticum collagenase using a linear regression program", "units": {"Ki": "µM"}}
{"smiles": "Cc1ccc(S(=O)(=O)N(Cc2ccc([N+](=O)[O-])cc2)C(C)C(=O)O)cc1", "note": "(configuration not stated) [2-[(4-Nitro-benzyl)-(toluene-4-sulfonyl)-amino]-propionic acid]", "Ki": 13}
{"smiles": "CC(C(=O)O)N(Cc1ccc([N+](=O)[O-])cc1)S(=O)(=O)c1c(F)c(F)c(F)c(F)c1F", "note": "(configuration not stated) [2-[(4-Nitro-benzyl)-pentafluorobenzenesulfonyl-amino]-propionic acid]", "Ki": 0.4}
{"smiles": "CC(C(=O)O)N(Cc1ccc([N+](=O)[O-])cc1)S(=O)(=O)Cc1ccccc1", "note": "(configuration not stated) [2-[(4-Nitro-benzyl)-phenylmethanesulfonyl-amino]-propionic acid]", "Ki": 15}
{"smiles": "CC(C(=O)O)N(Cc1ccc([N+](=O)[O-])cc1)S(=O)(=O)C(Cl)(Cl)Cl", "note": "(configuration not stated) [2-[(4-Nitro-benzyl)-trichloromethanesulfonyl-amino]-propionic acid]", "Ki": 5.1}
{"smiles": "CC(C(=O)O)N(Cc1ccc([N+](=O)[O-])cc1)S(=O)(=O)C(F)(F)F", "note": "(configuration not stated) [2-[(4-Nitro-benzyl)-trifluoromethanesulfonyl-amino]-propionic acid]", "Ki": 4.7}
{"smiles": "CC(C(=O)O)N(Cc1ccc([N+](=O)[O-])cc1)S(=O)(=O)c1ccc(NC(=O)OC(C)(C)C)cc1", "note": "(configuration not stated) [2-[(4-tert-Butoxycarbonylamino-benzenesulfonyl)-(4-nitro-benzyl)-amino]-propionic acid]", "Ki": 2.4}
{"smiles": "CC(C(=O)NO)N(Cc1ccc([N+](=O)[O-])cc1)S(=O)(=O)c1cccc2c(N(C)C)cccc12", "note": "(configuration not stated) [2-[(5-Dimethylamino-naphthalene-1-sulfonyl)-(4-nitro-benzyl)-amino]-N-hydroxy-propionamide]", "Ki": 7}
{"smiles": "CC(C(=O)O)N(Cc1ccc([N+](=O)[O-])cc1)S(=O)(=O)c1cccc2c(N(C)C)cccc12", "note": "(configuration not stated) [2-[(5-Dimethylamino-naphthalene-1-sulfonyl)-(4-nitro-benzyl)-amino]-propionic acid]", "Ki": 1.1}
{"smiles": "CC(C(=O)NO)N(Cc1ccc([N+](=O)[O-])cc1)S(=O)(=O)C(F)(F)C(F)(F)C(F)(F)C(F)(F)C(F)(F)C(F)(F)C(F)(F)C(F)(F)F", "note": "(configuration not stated) [2-[(Heptadecafluorooctane-1-sulfonyl)-(4-nitro-benzyl)-amino]-N-hydroxy-propionamide]", "Ki": 7}
{"smiles": "CC(C(=O)O)N(Cc1ccc([N+](=O)[O-])cc1)S(=O)(=O)C(F)(F)C(F)(F)C(F)(F)C(F)(F)C(F)(F)C(F)(F)C(F)(F)C(F)(F)F", "note": "(configuration not stated) [2-[(Heptadecafluorooctane-1-sulfonyl)-(4-nitro-benzyl)-amino]-propionic acid]", "Ki": 1.8}
{"smiles": "CC(C(=O)O)N(Cc1ccc([N+](=O)[O-])cc1)S(=O)(=O)c1cccc2ccccc12", "note": "(configuration not stated) [2-[(Naphthalene-1-sulfonyl)-(4-nitro-benzyl)-amino]-propionic acid]", "Ki": 1.2}
{"smiles": "CC(C(=O)O)N(Cc1ccc([N+](=O)[O-])cc1)S(=O)(=O)c1ccc2ccccc2c1", "note": "(configuration not stated) [2-[(Naphthalene-2-sulfonyl)-(4-nitro-benzyl)-amino]-propionic acid]", "Ki": 1.3}
{"smiles": "Cc1ccccc1S(=O)(=O)NC(=O)N(Cc1ccc([N+](=O)[O-])cc1)C(C)C(=O)O", "note": "(configuration not stated) [2-[({[(2-methylphenyl)sulfonyl]amino}carbonyl)(4-nitrobenzyl)amino]propanoic acid]", "Ki": 3.1}
{"smiles": "CC(C(=O)NO)N(Cc1ccc([N+](=O)[O-])cc1)C(=O)NS(=O)(=O)c1ccc(Cl)cc1", "note": "(configuration not stated) [2-[({[(4-chlorophenyl)sulfonyl]amino}carbonyl)(4-nitrobenzyl)amino]-N-hydroxypropanamide]", "Ki": 7}
{"smiles": "CC(C(=O)O)N(Cc1ccc([N+](=O)[O-])cc1)C(=O)NS(=O)(=O)c1ccc(Cl)cc1", "note": "(configuration not stated) [2-[({[(4-chlorophenyl)sulfonyl]amino}carbonyl)(4-nitrobenzyl)amino]propanoic acid]", "Ki": 2.4}
{"smiles": "CC(C(=O)NO)N(Cc1ccc([N+](=O)[O-])cc1)C(=O)NS(=O)(=O)c1ccc(F)cc1", "note": "(configuration not stated) [2-[({[(4-fluorophenyl)sulfonyl]amino}carbonyl)(4-nitrobenzyl)amino]-N-hydroxypropanamide]", "Ki": 9}
{"smiles": "CC(C(=O)O)N(Cc1ccc([N+](=O)[O-])cc1)C(=O)NS(=O)(=O)c1ccc(F)cc1", "note": "(configuration not stated) [2-[({[(4-fluorophenyl)sulfonyl]amino}carbonyl)(4-nitrobenzyl)amino]propanoic acid]", "Ki": 3.3}
{"smiles": "Cc1ccc(S(=O)(=O)NC(=O)N(Cc2ccc([N+](=O)[O-])cc2)C(C)C(=O)O)cc1", "note": "(configuration not stated) [2-[({[(4-methylphenyl)sulfonyl]amino}carbonyl)(4-nitrobenzyl)amino]propanoic acid]", "Ki": 2.5}
{"smiles": "CC(C(=O)NO)N(Cc1ccc([N+](=O)[O-])cc1)S(=O)(=O)c1ccccc1", "note": "(configuration not stated) [2-[Benzenesulfonyl-(4-nitro-benzyl)-amino]-N-hydroxy-propionamide]", "Ki": 54}
{"smiles": "CC(C(=O)O)N(Cc1ccc([N+](=O)[O-])cc1)S(=O)(=O)c1ccccc1", "note": "(configuration not stated) [2-[Benzenesulfonyl-(4-nitro-benzyl)-amino]-propionic acid]", "Ki": 21}
{"smiles": "CC(C(=O)O)N(Cc1ccc([N+](=O)[O-])cc1)S(C)(=O)=O", "note": "(configuration not stated) [2-[Methanesulfonyl-(4-nitro-benzyl)-amino]-propionic acid]", "Ki": 18}
{"smiles": "CC(C(=O)NO)N(Cc1ccc([N+](=O)[O-])cc1)S(=O)(=O)N(C)C", "note": "(configuration not stated) [2-[[(dimethylamino)sulfonyl](4-nitrobenzyl)amino]-N-hydroxypropanamide]", "Ki": 69}
{"smiles": "CC(C(=O)O)N(Cc1ccc([N+](=O)[O-])cc1)S(=O)(=O)N(C)C", "note": "(configuration not stated) [2-[[(dimethylamino)sulfonyl](4-nitrobenzyl)amino]propanoic acid]", "Ki": 36}
{"smiles": "CC(C(=O)O)N(Cc1ccc([N+](=O)[O-])cc1)S(=O)(=O)c1cccc(C(=O)O)c1", "note": "(configuration not stated) [3-[(1-Carboxy-ethyl)-(4-nitro-benzyl)-sulfamoyl]-benzoic acid]", "Ki": 2}
{"smiles": "CC(C(=O)NO)N(Cc1ccc([N+](=O)[O-])cc1)S(=O)(=O)c1cccc(C(=O)O)c1", "note": "(configuration not stated) [3-[(1-Hydroxycarbamoyl-ethyl)-(4-nitro-benzyl)-sulfamoyl]-benzoic acid]", "Ki": 9}
{"smiles": "CC(C(=O)O)N(Cc1ccc([N+](=O)[O-])cc1)S(=O)(=O)c1ccc(C(=O)O)cc1", "note": "(configuration not stated) [4-[(1-Carboxy-ethyl)-(4-nitro-benzyl)-sulfamoyl]-benzoic acid]", "Ki": 1.4}
{"smiles": "CC(C(=O)NO)N(Cc1ccc([N+](=O)[O-])cc1)S(=O)(=O)c1ccc(C(=O)O)cc1", "note": "(configuration not stated) [4-[(1-Hydroxycarbamoyl-ethyl)-(4-nitro-benzyl)-sulfamoyl]-benzoic acid]", "Ki": 6}
{"smiles": "CC(C(=O)NO)N(Cc1ccc([N+](=O)[O-])cc1)C(=O)Nc1cccc2ccccc12", "note": "(configuration not stated) [N-Hydroxy-2-[3-naphthalen-1-yl-1-(4-nitro-benzyl)-ureido]-propionamide]", "Ki": 10}
{"smiles": "CC(C(=O)NO)N(Cc1ccc([N+](=O)[O-])cc1)S(=O)(=O)c1ccccc1[N+](=O)[O-]", "note": "(configuration not stated) [N-Hydroxy-2-[(2-nitro-benzenesulfonyl)-(4-nitro-benzyl)-amino]-propionamide]", "Ki": 13}
{"smiles": "CC(C(=O)NO)N(Cc1ccc([N+](=O)[O-])cc1)S(=O)(=O)c1cccc([N+](=O)[O-])c1", "note": "(configuration not stated) [N-Hydroxy-2-[(3-nitro-benzenesulfonyl)-(4-nitro-benzyl)-amino]-propionamide]", "Ki": 12}
{"smiles": "CC(C(=O)NO)N(Cc1ccc([N+](=O)[O-])cc1)S(=O)(=O)c1ccc(I)cc1", "note": "(configuration not stated) [N-Hydroxy-2-[(4-iodo-benzenesulfonyl)-(4-nitro-benzyl)-amino]-propionamide]", "Ki": 37}
{"smiles": "COc1ccc(S(=O)(=O)N(Cc2ccc([N+](=O)[O-])cc2)C(C)C(=O)NO)cc1", "note": "(configuration not stated) [N-Hydroxy-2-[(4-methoxy-benzenesulfonyl)-(4-nitro-benzyl)-amino]-propionamide]", "Ki": 21}
